The values below come from BindingDB's records for doi:10.1021/acs.jmedchem.7b01492 (Peking University, 2019).

In the assay the target is Neuronal acetylcholine receptor subunit alpha-7 (Homo sapiens, UniProt P36544). The experiment in a line: Positive allosteric modulation of human alpha7 nAChR expressed in Xenopus laevis oocytes assessed as increase in acetylcholine-induced channel current by measuring acetylcholine EC50 at 10 uM at -90 mV holding potential preincubated for 2 mins followed by co-application with acetylcholine for 10 secs by two-electrode voltage clamp method (Rvb = 256.4 +/- 20.1 uM). (Two-electrode voltage clamp is typically applied to oocytes expressing channels or transporters.)
Chain of Neuronal acetylcholine receptor subunit alpha-7 (P36544 whole entry): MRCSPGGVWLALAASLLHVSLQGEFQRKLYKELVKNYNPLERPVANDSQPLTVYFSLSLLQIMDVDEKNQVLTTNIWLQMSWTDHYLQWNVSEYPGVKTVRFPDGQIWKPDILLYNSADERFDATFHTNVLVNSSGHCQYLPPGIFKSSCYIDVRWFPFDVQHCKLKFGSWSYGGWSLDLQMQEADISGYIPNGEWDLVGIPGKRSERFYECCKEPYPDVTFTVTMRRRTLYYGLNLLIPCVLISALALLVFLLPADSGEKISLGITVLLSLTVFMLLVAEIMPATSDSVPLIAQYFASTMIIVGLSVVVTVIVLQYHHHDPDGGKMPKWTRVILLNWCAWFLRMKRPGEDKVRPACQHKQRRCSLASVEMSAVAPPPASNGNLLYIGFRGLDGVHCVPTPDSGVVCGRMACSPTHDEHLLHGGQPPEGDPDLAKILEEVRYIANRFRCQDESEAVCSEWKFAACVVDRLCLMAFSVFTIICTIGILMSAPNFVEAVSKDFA

The term EC50 denotes the midpoint of the concentration-response curve. In the case of `Cc1cccc(Cl)c1-n1cnc2nc(SCc3ccccc3)sc2c1=O`, the half-maximal effective concentration (EC50) was 187 µM.
